“And” between values parts separate entries of the source, which are not always exact repeats. Equal entries are not always repeated.
Legend:
[1] = system: acute attacks of vertigo in patients with Menière's disease; assay: Observational study: high-dosage betahistine monotherapy versus lower-dosage betahistine plus selegiline; type: in vivo, human
Procedure: Betahistine dihydrochloride tablets were obtained from Abbott (Vasomotol 24 mg tablets). Selegiline hydrochloride tablets were obtained from Hexal.
Studies by the Applicant investigated the benefits of a high-dosage betahistine monotherapy compared with those of a lower dosage of betahistine in combination with the MAO B inhibitor (MAO-B) selegiline on the frequency of acute attacks of vertigo in patients with Menière's disease (MD).
More specifically, studies investigated the effect of combination therapy in 13 subjects receiving 5 mg per day selegiline hydrochloride (either as one tablet at night, or half a tablet in the morning and half a tablet at night), in conjunction with varying amounts of betahistine dihydrochloride per day (amounts ranging from n=3 to 36, where n is the number of 24 mg tablets per day). All subjects had previously received treatment with betahistine dihydrochloride monotherapy (in amounts ranging from n=9 to 80, where n is the number of 24 mg tablets per day), and the number of vertigo attacks per month were recorded during a three month period of monotherapy prior to commencement of combination treatment. Following combination treatment, the subjects then recorded the number of vertigo attacks per month during the last two months of combination treatment.
The 13 patients in this observational study fulfilled the current diagnostic criteria of MD [48]. Patients with the diagnosis of other peripheral or central vestibular disorders, such as vestibular migraine, benign paroxysmal positional vertigo, paroxysmal brainstem attacks, or functional dizziness, were not included. Patients suffering from known contraindications or hypersensitivity to betahistine, such as bronchial asthma, pheochromocytoma, or treatment with other antihistaminic drugs, ulcer of the stomach or duodendum, or severe dysfunction of liver or kidney were also not treated with betahistine. Patients with known contraindications (e.g., use of meperidine or other opioids, tricyclic antidepressants or non-selective MAOls, selective serotonin re-uptake inhibitors) or hypersensitivity to selegiline were not treated with this agent.
Based on the results of the BEMED trial (showing that betahistine 48 mg tid is evidently not effective) the study initially started with a dosage of 96 mg tid in all patients. During the three- to six-monthly follow-up examinations the daily dosages were adjusted according to the patient's response (approach: “titration” of attacks of vertigo). Patients had been treated for at least 18 months with high dosages of betahistine-dihydrochloride and had ≤1 attacks for at least three months. An initial dosage of 5 mg/day selegiline hydrochloride was chosen (approved dosage for Parkinson's disease is 5 to 10 mg/d). In parallel the dosage of betahistine was reduced to about a tenth of the initial dosage. The design of the observational study was approved by the local ethics committee. Follow-up examinations were after 1 month and then every 3 months to check the efficacy of the treatment and the side-effects and to adjust the betahistine dosage if necessary. Ideally, the objective was to achieve ≤1 attack per three months.

[2] = system: vertigo episodes related to Menière's disease; conditions: daily doses 2×24 mg or 3×48 mg; nine months; cited from earlier work
[3] = cited from earlier work

With `CNCCc1ccccn1` [betahistine, 2-[2-(methylamino)ethyl]pyridine] the “daily betahistine-dihydrochloride dosage required to achieve a treatment response, mean” value ([1]; 13 patients) was 895.4 mg/day, the “daily betahistine-dihydrochloride dosage required to achieve a treatment response, mean in tablets” value ([1]; 13 patients) was 37.3 24-mg tablets per day and the “mean daily dosage of betahistine-dihydrochloride to respond to treatment (≤1 attack per three months), FIG. 1” value ([1]; 13 patients, per day) was 895.4 mg. For the same compound, the tolerability ([1]; 216 to 1920 mg per day) was “well tolerated”, the “patients with fullness of the stomach” value ([1]; 216 to 1920 mg per day, 13 patients) was 4 patients and the “Dosage of betahistine (monotherapy) required that the patient had a significant effect before the combined treatment” value ([1]; individual patients 1-13 with Menière's disease, tablets per day) was 80 n of 24-mg tablets and 30 n of 24-mg tablets (3×) and 9 n of 24-mg tablets and 36 n of 24-mg tablets and 60 n of 24-mg tablets (2×) and 24 n of 24-mg tablets and 18 n of 24-mg tablets (2×) and 50 n of 24-mg tablets and 40 n of 24-mg tablets. For the same compound, the “effect on time course of vertigo episodes compared with placebo” value [2] was “does not change the time course of vertigo episodes”, the plasma concentrations ([3]; betahistine without MAO inhibitor) was “less than 0.5 ng/ml” and the first-pass effect ([3]; normally almost complete) was 99%.

— patent publication US11083718B2, “Betahistine, or a pharmaceutically acceptable salt thereof, and a monoamine oxidase inhibitor, for use in the treatment or prevention of one or more symptoms of vertigo in a subject” (INTRABIO LTD, priority 2017, dated 2021)
